Experimental data published in patent publication US11311568B2, “Therapeutic pharmaceutical composition for cancer including miRNA” (Purmx Therapeutics, Inc., priority 2017, dated 2022).

Assays:
Assay in all cases: Screening in cancer cell strains, cell survival rate with PrestoBlue
Assay type in all cases: cell-based
[1] = system: large intestine cancer cell strain HCT116 (p53 deletion); conditions: Day 5 after transfection with RNAiMAX, compared with miR-34a-5p
Description: (§1) The 349 types of aging induction miRNA (mirVana; Ambion) obtained from screening were transfected into various cancer cell strains (large intestine cancer cell strain HCT116 (p53 wildtype and p53 deletion), pancreatic cancer cell strains BxPC-3 and CFPAC-1, and tongue cancer cell strain HSC-4) with an auto dispenser Bravo (Agilent).
(§2) Transfection was carried out with the following protocol.
(§3) 1: To 70 μL of serum free medium (SFM) was added 0.35 μL of RNAiMAX (Invitrogen).
(§4) 2: The solution from 1 was added to a 96-well plate (μ-plate; ibidi) with Bravo.
(§5) 3: To 2 was added 0.7 μL of miRNA (Stock Conc. 200 nM) with Bravo, and this was mixed by pipetting.
(§6) 4: This was incubated at room temperature for 20 minutes.
(§7) 5: A cell suspension diluted to 3.5×10^4 cells/mL was dispensed at 70 μL each with Bravo.
(§8) 6: This was incubated at 37° C. under 5% CO2 condition.
(§9) Setting the day of transfection as Day 0, on Day 5 the cell survival rate was evaluated with PrestoBlue (Invitrogen). The operating protocol is shown below.
(§10) 1. The medium was exchanged to a medium comprising PrestoBlue diluted 20-folds, and this was incubated at 37° C. for 1 hour. 2. The fluorescence value (Ex/Em=560 nm/590 nm) was measured with Enspire (Perkin Elmer).
(§11) 3. The cell survival rate was determined by setting the fluorescence value obtained from the well with only the reagent as the background.

[2] = system: large intestine cancer cell strain HCT116 (p53 wildtype); conditions: Day 5 after transfection with RNAiMAX, compared with miR-34a-5p
Description: as §1, §2, §3, §4, §5, §6, §7, §8, §9, §10, §11

[3] = system: pancreatic cancer cell strain BxPC-3; conditions: BxPC-3, Day 5 after transfection with RNAiMAX, compared with miR-34a-5p
Description: as §1, §2, §3, §4, §5, §6, §7, §8, §9, §10, §11

[4] = system: pancreatic cancer cell strain CFPAC-1; conditions: CFPAC-1, Day 5 after transfection with RNAiMAX, compared with miR-34a-5p
Description: as §1, §2, §3, §4, §5, §6, §7, §8, §9, §10, §11

[5] = system: tongue cancer cell strain HSC-4; conditions: HSC-4, Day 5 after transfection with RNAiMAX, compared with miR-34a-5p
Description: as §1, §2, §3, §4, §5, §6, §7, §8, §9, §10, §11

Substance | suppression of cell proliferation (cell survival rate, PrestoBlue) [1] | suppression of cell proliferation (cell survival rate, PrestoBlue) [2] | suppression of cell proliferation (cell survival rate, PrestoBlue) [3] | suppression of cell proliferation (cell survival rate, PrestoBlue) [4] | suppression of cell proliferation (cell survival rate, PrestoBlue) [5]
miR-631-5p: Mature-miRNA, AGACCUGGCCCAGACCUCAGC (SEQ ID NO. 8) (listed as RNA, chemistry not given here; listed as Homo sapiens) | suppress cell proliferation more significantly than miR-34-5p | suppress cell proliferation more significantly than miR-34-5p | suppress cell proliferation more significantly than miR-34-5p | suppress cell proliferation more significantly than miR-34-5p | suppress cell proliferation more significantly than miR-34-5p
miR-657-3p: Mature-miRNA, GGCAGGUUCUCACCCUCUCUAGG (SEQ ID NO. 11) (listed as RNA, chemistry not given here; listed as Homo sapiens) | suppress cell proliferation more significantly than miR-34-5p | suppress cell proliferation more significantly than miR-34-5p | suppress cell proliferation more significantly than miR-34-5p | suppress cell proliferation more significantly than miR-34-5p | suppress cell proliferation more significantly than miR-34-5p
miR-137-3p: Mature-miRNA, UUAUUGCUUAAGAAUACGCGUAG (SEQ ID NO. 5) (listed as RNA, chemistry not given here; listed as Homo sapiens) | suppress cell proliferation more significantly than miR-34-5p | suppress cell proliferation more significantly than miR-34-5p | suppress cell proliferation more significantly than miR-34-5p | suppress cell proliferation more significantly than miR-34-5p | suppress cell proliferation more significantly than miR-34-5p
